Experimental data: the NIST ThermoML archive (doi:10.1021/je700260f)
± gives the expanded uncertainty stated by the source.

Conditions: Liquid, Vibrating tube method

FC(C(F)(F)F)C(F)(F)F [1,1,1,2,3,3,3-heptafluoropropane]
Conditions	mass density [kg/m3]
303.14 K, 14797 kPa	1456.7 ± 1.6
303.14 K, 14835 kPa	1456.8 ± 1.6
303.14 K, 17693 kPa	1469.8 ± 1.6
303.14 K, 21659 kPa	1486 ± 1.6
303.14 K, 21693 kPa	1486.3 ± 1.6
303.14 K, 21731 kPa	1486.4 ± 1.6
303.14 K, 21764 kPa	1486.4 ± 1.6
303.14 K, 21797 kPa	1486.6 ± 1.6
303.14 K, 21835 kPa	1486.9 ± 1.6
303.14 K, 21869 kPa	1486.9 ± 1.6
303.14 K, 21906 kPa	1486.9 ± 1.6
303.14 K, 21939 kPa	1487.2 ± 1.6
303.14 K, 21972 kPa	1487.3 ± 1.6
303.14 K, 22005 kPa	1487.5 ± 1.6
303.14 K, 22039 kPa	1487.5 ± 1.6
303.14 K, 22067 kPa	1487.7 ± 1.6
303.14 K, 22096 kPa	1487.7 ± 1.6
303.14 K, 22140 kPa	1487.9 ± 1.6
303.14 K, 22178 kPa	1488.1 ± 1.6
303.14 K, 22208 kPa	1488.1 ± 1.6
303.14 K, 22251 kPa	1488.4 ± 1.6
303.14 K, 22280 kPa	1488.4 ± 1.6
303.14 K, 22361 kPa	1488.8 ± 1.6
303.14 K, 22404 kPa	1488.9 ± 1.6
303.14 K, 23559 kPa	1493.4 ± 1.6
303.14 K, 23594 kPa	1493.4 ± 1.6
303.14 K, 23621 kPa	1493.5 ± 1.6
303.14 K, 23651 kPa	1493.8 ± 1.6
303.14 K, 23681 kPa	1493.8 ± 1.6
303.14 K, 26459 kPa	1504 ± 1.7
303.14 K, 26487 kPa	1503.9 ± 1.7
303.14 K, 26573 kPa	1504.3 ± 1.7
303.14 K, 26602 kPa	1504.5 ± 1.7
303.14 K, 26627 kPa	1504.5 ± 1.7
303.14 K, 26661 kPa	1504.7 ± 1.7
303.14 K, 26685 kPa	1504.6 ± 1.7
303.14 K, 27097 kPa	1506 ± 1.7
303.14 K, 27130 kPa	1506.1 ± 1.7
303.14 K, 27159 kPa	1506.3 ± 1.7
303.14 K, 27188 kPa	1506.5 ± 1.7
303.14 K, 27217 kPa	1506.5 ± 1.7
303.14 K, 27398 kPa	1507.2 ± 1.7
303.14 K, 27427 kPa	1507.2 ± 1.7
303.14 K, 27494 kPa	1507.5 ± 1.7
303.14 K, 27528 kPa	1507.5 ± 1.7
303.14 K, 27562 kPa	1507.7 ± 1.7
303.14 K, 27605 kPa	1507.8 ± 1.7
303.14 K, 27634 kPa	1507.9 ± 1.7
303.14 K, 27671 kPa	1508 ± 1.7
303.14 K, 27705 kPa	1508.1 ± 1.7
303.14 K, 27735 kPa	1508.3 ± 1.7
303.14 K, 27769 kPa	1508.4 ± 1.7
303.14 K, 27803 kPa	1508.5 ± 1.7
303.14 K, 27840 kPa	1508.4 ± 1.7
303.14 K, 27861 kPa	1508.6 ± 1.7
303.14 K, 27887 kPa	1508.9 ± 1.7
303.14 K, 27917 kPa	1508.9 ± 1.7
303.14 K, 27946 kPa	1509 ± 1.7
303.14 K, 27976 kPa	1509.1 ± 1.7
303.14 K, 28006 kPa	1509.2 ± 1.7
303.14 K, 28040 kPa	1509.3 ± 1.7
303.14 K, 28065 kPa	1509.5 ± 1.7
303.14 K, 28095 kPa	1509.5 ± 1.7
303.14 K, 28120 kPa	1509.6 ± 1.7
303.14 K, 28158 kPa	1509.6 ± 1.7
303.14 K, 28184 kPa	1509.9 ± 1.7
303.14 K, 28206 kPa	1510 ± 1.7
303.14 K, 28241 kPa	1510 ± 1.7
303.14 K, 28271 kPa	1510.1 ± 1.7
303.14 K, 28300 kPa	1510.2 ± 1.7
303.14 K, 28330 kPa	1510.4 ± 1.7
303.14 K, 28355 kPa	1510.5 ± 1.7
303.14 K, 28394 kPa	1510.6 ± 1.7
303.14 K, 31947 kPa	1522.2 ± 1.7
303.14 K, 31984 kPa	1522.4 ± 1.7
303.14 K, 32012 kPa	1522.5 ± 1.7
303.14 K, 32053 kPa	1522.5 ± 1.7
303.14 K, 32086 kPa	1522.6 ± 1.7
303.14 K, 32123 kPa	1522.8 ± 1.7
303.14 K, 32155 kPa	1522.9 ± 1.7
303.14 K, 32187 kPa	1522.9 ± 1.7
303.14 K, 32215 kPa	1523 ± 1.7
303.14 K, 32251 kPa	1523.2 ± 1.7
303.14 K, 32280 kPa	1523.2 ± 1.7
303.14 K, 32322 kPa	1523.4 ± 1.7
303.14 K, 32345 kPa	1523.3 ± 1.7
303.14 K, 32382 kPa	1523.4 ± 1.7
303.14 K, 32418 kPa	1523.7 ± 1.7
303.14 K, 32449 kPa	1523.8 ± 1.7
303.14 K, 32481 kPa	1523.9 ± 1.7
303.14 K, 32513 kPa	1524 ± 1.7
303.14 K, 32542 kPa	1524.1 ± 1.7
303.14 K, 32574 kPa	1524.1 ± 1.7
303.14 K, 32603 kPa	1524.3 ± 1.7
303.14 K, 32646 kPa	1524.3 ± 1.7
303.14 K, 32674 kPa	1524.4 ± 1.7
303.14 K, 32713 kPa	1524.6 ± 1.7
303.14 K, 32736 kPa	1524.6 ± 1.7
303.14 K, 32764 kPa	1524.8 ± 1.7
303.14 K, 32792 kPa	1524.9 ± 1.7
303.14 K, 32830 kPa	1524.9 ± 1.7
303.14 K, 32858 kPa	1525.1 ± 1.7
303.14 K, 32887 kPa	1525.2 ± 1.8
303.14 K, 32920 kPa	1525.2 ± 1.8
303.14 K, 32949 kPa	1525.4 ± 1.8
303.14 K, 32977 kPa	1525.5 ± 1.8
303.14 K, 33020 kPa	1525.5 ± 1.8
303.14 K, 33054 kPa	1525.6 ± 1.8
303.14 K, 33098 kPa	1525.7 ± 1.8
303.14 K, 33133 kPa	1525.9 ± 1.8
303.14 K, 33172 kPa	1526 ± 1.8
303.14 K, 33200 kPa	1526.1 ± 1.8
303.14 K, 33239 kPa	1526.2 ± 1.8
303.14 K, 33268 kPa	1526.3 ± 1.8
303.14 K, 33306 kPa	1526.5 ± 1.8
303.14 K, 33345 kPa	1526.6 ± 1.8
303.14 K, 33378 kPa	1526.7 ± 1.8
303.14 K, 33413 kPa	1526.7 ± 1.8
303.14 K, 33457 kPa	1526.9 ± 1.8
303.14 K, 33496 kPa	1527.1 ± 1.8
303.14 K, 33537 kPa	1527.1 ± 1.8
303.14 K, 33567 kPa	1527.3 ± 1.8
303.14 K, 33615 kPa	1527.5 ± 1.8
303.14 K, 33644 kPa	1527.5 ± 1.8
303.14 K, 33683 kPa	1527.6 ± 1.8
303.14 K, 33717 kPa	1527.8 ± 1.8
303.14 K, 33758 kPa	1527.8 ± 1.8
303.14 K, 33793 kPa	1527.9 ± 1.8
303.14 K, 33838 kPa	1528 ± 1.8
303.14 K, 33877 kPa	1528.2 ± 1.8
303.14 K, 33912 kPa	1528.4 ± 1.8
303.14 K, 34122 kPa	1529 ± 1.8
303.14 K, 34158 kPa	1529 ± 1.8
303.14 K, 34201 kPa	1529.1 ± 1.8
303.14 K, 34250 kPa	1529.3 ± 1.8
303.14 K, 34300 kPa	1529.4 ± 1.8
303.14 K, 34356 kPa	1529.6 ± 1.8
303.14 K, 34400 kPa	1529.8 ± 1.8
303.14 K, 34442 kPa	1529.9 ± 1.8
303.14 K, 34476 kPa	1529.9 ± 1.8
303.14 K, 34501 kPa	1530.1 ± 1.8
303.14 K, 34513 kPa	1530 ± 1.8
303.14 K, 34522 kPa	1530.1 ± 1.8
303.14 K, 34526 kPa	1530.1 ± 1.8
303.15 K, 540 kPa	1366.5 ± 1.5
303.15 K, 560 kPa	1366.8 ± 1.5
303.15 K, 580 kPa	1367 ± 1.5
303.15 K, 600 kPa	1367.1 ± 1.5
303.15 K, 630 kPa	1367.3 ± 1.5
303.15 K, 650 kPa	1367.5 ± 1.5
303.15 K, 680 kPa	1367.6 ± 1.5
303.15 K, 700 kPa	1368 ± 1.5
303.15 K, 720 kPa	1368.1 ± 1.5
303.15 K, 740 kPa	1368.3 ± 1.5
303.15 K, 750 kPa	1368.5 ± 1.5
303.15 K, 780 kPa	1368.7 ± 1.5
303.15 K, 800 kPa	1368.9 ± 1.5
303.15 K, 830 kPa	1369.2 ± 1.5
303.15 K, 850 kPa	1369.3 ± 1.5
303.15 K, 870 kPa	1369.5 ± 1.5
303.15 K, 900 kPa	1369.8 ± 1.5
303.15 K, 920 kPa	1369.9 ± 1.5
303.15 K, 950 kPa	1370.1 ± 1.5
303.15 K, 980 kPa	1370.4 ± 1.5
303.15 K, 1000 kPa	1370.7 ± 1.5
303.15 K, 1030 kPa	1370.9 ± 1.5
303.15 K, 1060 kPa	1371.1 ± 1.5
303.15 K, 1090 kPa	1371.4 ± 1.5
303.15 K, 1110 kPa	1371.6 ± 1.5
303.15 K, 1139 kPa	1371.8 ± 1.5
303.15 K, 1161 kPa	1372 ± 1.5
303.15 K, 1177 kPa	1372.1 ± 1.5
303.15 K, 1199 kPa	1372.3 ± 1.5
303.15 K, 1213 kPa	1372.5 ± 1.5
303.15 K, 1250 kPa	1372.8 ± 1.5
303.15 K, 1267 kPa	1372.9 ± 1.5
303.15 K, 1284 kPa	1373.1 ± 1.5
303.15 K, 1299 kPa	1373.1 ± 1.5
303.15 K, 1317 kPa	1373.4 ± 1.5
303.15 K, 1339 kPa	1373.5 ± 1.5
303.15 K, 1354 kPa	1373.7 ± 1.5
303.15 K, 1374 kPa	1373.9 ± 1.5
303.15 K, 1395 kPa	1374.1 ± 1.5
303.15 K, 1417 kPa	1374.2 ± 1.5
303.15 K, 1440 kPa	1374.4 ± 1.5
303.15 K, 1464 kPa	1374.6 ± 1.5
303.15 K, 1481 kPa	1374.7 ± 1.5
303.15 K, 1505 kPa	1375 ± 1.5
303.15 K, 1522 kPa	1375 ± 1.5
303.15 K, 1548 kPa	1375.3 ± 1.5
303.15 K, 1568 kPa	1375.5 ± 1.5
303.15 K, 1590 kPa	1375.6 ± 1.5
303.15 K, 1608 kPa	1375.8 ± 1.5
303.15 K, 1631 kPa	1375.9 ± 1.5
303.15 K, 1645 kPa	1376.1 ± 1.5
303.15 K, 1666 kPa	1376.5 ± 1.5
303.15 K, 1689 kPa	1376.4 ± 1.5
303.15 K, 1706 kPa	1376.6 ± 1.5
303.15 K, 1732 kPa	1376.9 ± 1.5
303.15 K, 1794 kPa	1377.4 ± 1.5
303.15 K, 1812 kPa	1377.6 ± 1.5
303.15 K, 1859 kPa	1377.8 ± 1.5
303.15 K, 1883 kPa	1377.9 ± 1.5
303.15 K, 1903 kPa	1378.3 ± 1.5
303.15 K, 1924 kPa	1378.4 ± 1.5
